Data: US6537948B1, “Uracil compounds and use thereof” (Sumitomo Chemical Company, Limited, priority 2000, dated 2003)

Experiments:
Assay type in all cases: in vivo
[1] = tested on: velvetleaf (Abutilon theophrasti); test: Test Example 1: foliar treatment of field; conditions: foliar spray, dosage 125 g/ha, 16 days after application
Description: (§1) A cylindrical plastic pot having a diameter of 10 cm and a depth of 10 cm was filled with soil and then seeded with ivyleaf morningglory (Ipomoea hederacea) and velvetleaf (Abutilon theophrasti). These test plants were grown in a greenhouse for 10 days. Then, each of compounds 1-2, 1-42, 1-45, 1-48, 2-2, 2-7, 2-42, 2-45, 3-2, 3-12, 4-7, 4-85, 5-12-R, 5-12-S, 5-17, 6-2, 7-2, 7-6, 7-8, 7-12, 7-48, 7-50, 7-84, 7-118, 7-119, 7-125, 9-7, 9-27 and 9-45 was formulated into an emulsifiable concentrate according to Formulation Example 2 and then diluted to the prescribed amount with water containing a spreading agent and the dilution was uniformly sprayed over the foliage of the test plants with a sprayer at a rate of 1000 liters per hectare. After the application, the test plants were grown in the greenhouse for 16 days, and the herbicidal activity was determined.

[2] = tested on: ivyleaf morningglory (Ipomoea hederacea); test: Test Example 1: foliar treatment of field; conditions: foliar spray, dosage 125 g/ha, 16 days after application
Description: as §1

[3] = tested on: velvetleaf (Abutilon theophrasti); test: Test Example 2: soil surface treatment of field; conditions: soil surface spray, dosage 500 g/ha, 19 days after application
Description: (§2) A cylindrical plastic pot having a diameter of 10 cm and a depth of 10 cm was filled with soil and then seeded with ivyleaf morningglory (Ipomoea hederacea) and velvetleaf (Abutilon theophrasti). Then, each of the compounds 1-2, 1-42, 1-48, 2-2, 2-7, 2-42, 2-45, 3-2, 3-12, 4-7, 4-85, 5-12-R, 5-12-S, 5-17, 6-2, 7-2, 7-6, 7-8, 7-12, 7-48, 7-50, 7-84, 7-118, 7-119, 7-125, 9-7, 9-27 and 9-45 was formulated into an emulsifiable concentrate according to Formulation Example 2 and then diluted to the prescribed amount with water, and the dilution was uniformly sprayed over the surface of the soil with a sprayer at a rate of 1000 liters per hectare. After the application, the test plants were grown in the greenhouse for 19 days, and the herbicidal activity was examined.

[4] = tested on: ivyleaf morningglory (Ipomoea hederacea); test: Test Example 2: soil surface treatment of field; conditions: soil surface spray, dosage 500 g/ha, 19 days after application
Description: as §2

COC(=O)C(C)Oc1cccnc1Oc1cc(-n2c(=O)cc(C(F)(F)F)n(C)c2=O)c(F)cc1Cl (centres unmarked) [Compound 2-2, 2-{2-chloro-4-fluoro-5-[3-methyl-2,6-dioxo-4-(trifluoromethyl)-1,2,3,6-tetrahydropyrimidin-1-yl]phenoxy}-3-{1-(methoxycarbonyl)ethoxy}pyridine]
completely controlled: growth of velvetleaf (herbicidal activity) [1] | growth of ivyleaf morningglory (herbicidal activity) [2] | growth of velvetleaf (herbicidal activity) [3] | growth of ivyleaf morningglory (herbicidal activity) [4]

COC(=O)COc1cccc(Oc2cc(-n3c(=O)cc(C(F)(F)F)n(C)c3=O)c(F)cc2Cl)n1 [Compound 2-45, 2-{2-chloro-4-fluoro-5-[3-methyl-2,6-dioxo-4-(trifluoromethyl)-1,2,3,6-tetrahydropyrimidin-1-yl]phenoxy}-6-(methoxycarbonyl)methoxypyridine]
completely controlled: growth of velvetleaf (herbicidal activity) [1] | growth of ivyleaf morningglory (herbicidal activity) [2] | growth of velvetleaf (herbicidal activity) [3] | growth of ivyleaf morningglory (herbicidal activity) [4]

COC(=O)C(C)Oc1ccc(Oc2cc(-n3c(=O)cc(C(F)(F)F)n(C)c3=O)c(F)cc2Cl)cn1 (centres unmarked) [Compound 7-12, 5-{2-chloro-4-fluoro-5-[3-methyl-2,6-dioxo-4-(trifluoromethyl)-1,2,3,6-tetrahydropyrimidin-1-yl]phenoxy}-2-{1-(methoxycarbonyl)ethoxy}pyridine]
completely controlled: growth of velvetleaf (herbicidal activity) [1] | growth of ivyleaf morningglory (herbicidal activity) [2] | growth of velvetleaf (herbicidal activity) [3] | growth of ivyleaf morningglory (herbicidal activity) [4]

COC(=O)C(C)Oc1cc(Oc2cc(-n3c(=O)cc(C(F)(F)F)n(C)c3=O)c(F)cc2Cl)ncn1 (centres unmarked) [Compound 3-12, methyl 2-([4-{2-chloro-4-fluoro-5-[3-methyl-2,6-dioxo-4-(trifluoromethyl)-1,2,3,6-tetrahydropyrimidin-1-yl]phenoxy}pyrimidin-6-yl]oxy)propionate]
completely controlled: growth of velvetleaf (herbicidal activity) [1] | growth of ivyleaf morningglory (herbicidal activity) [2] | growth of velvetleaf (herbicidal activity) [3] | growth of ivyleaf morningglory (herbicidal activity) [4]

COC(=O)C(C)Oc1ncccc1Oc1cc(-n2c(=O)cc(C(F)(F)F)n(C)c2=O)c(F)cc1Cl (centres unmarked) [Compound 7-2, 3-{2-chloro-4-fluoro-5-[3-methyl-2,6-dioxo-4-(trifluoromethyl)-1,2,3,6-tetrahydropyrimidin-1-yl]phenoxy}-2-{1-(methoxycarbonyl)ethoxy} pyridine]
completely controlled: growth of velvetleaf (herbicidal activity) [1] | growth of ivyleaf morningglory (herbicidal activity) [2] | growth of velvetleaf (herbicidal activity) [3] | growth of ivyleaf morningglory (herbicidal activity) [4]

COC(=O)COC(=O)COc1ncccc1Oc1cc(-n2c(=O)cc(C(F)(F)F)n(C)c2=O)c(F)cc1Cl [Compound 7-119, 3-{2-chloro-4-fluoro-5-[3-methyl-2,6-dioxo-4-(trifluoromethyl)-1,2,3,6-tetrahydropyrimidin-1-yl]phenoxy}-2-[(methoxycarbonyl)methoxycarbonylmethoxy]pyridine]
completely controlled: growth of velvetleaf (herbicidal activity) [1] | growth of ivyleaf morningglory (herbicidal activity) [2] | growth of velvetleaf (herbicidal activity) [3] | growth of ivyleaf morningglory (herbicidal activity) [4]

COC(=O)COc1ncccc1Oc1cc(-n2c(=O)cc(C(F)(F)F)n(C)c2=O)c(F)cc1[N+](=O)[O-] [Compound 9-45, 3-{4-fluoro-5-[3-methyl-2,6-dioxo-4-(trifluoromethyl)-1,2,3,6-tetrahydropyrimidin-1-yl]-2-nitrophenoxy}-2-(methoxycarbonyl)methoxypyridine]
completely controlled: growth of velvetleaf (herbicidal activity) [1] | growth of ivyleaf morningglory (herbicidal activity) [2] | growth of velvetleaf (herbicidal activity) [3] | growth of ivyleaf morningglory (herbicidal activity) [4]

COC(=O)[C@@H](C)Oc1n[nH]c(C)c1Oc1cc(-n2c(=O)cc(C(F)(F)F)n(C)c2=O)c(F)cc1Cl [Compound 5-12-R, (R)-3-{1-(methoxycarbonyl)ethoxy}-4-{2-chloro-4-fluoro-5-[3-methyl-2,6-dioxo-4-(trifluoromethyl)-1,2,3,6-tetrahydropyrimidin-1-yl]phenoxy}-5-methylpyrazole]
completely controlled: growth of velvetleaf (herbicidal activity) [1] | growth of ivyleaf morningglory (herbicidal activity) [2] | growth of velvetleaf (herbicidal activity) [3] | growth of ivyleaf morningglory (herbicidal activity) [4]

COC(=O)COc1ncccc1Oc1cc(-n2c(=O)cc(C(F)(F)F)n(C)c2=O)c(F)cc1Br [Compound 9-7, 3-{2-bromo-4-fluoro-5-[3-methyl-2,6-dioxo-4-(trifluoromethyl)-1,2,3,6-tetrahydropyrimidin-1-yl]phenoxy}-2-(methoxycarbonyl)methoxypyridine]
completely controlled: growth of velvetleaf (herbicidal activity) [1] | growth of ivyleaf morningglory (herbicidal activity) [2] | growth of velvetleaf (herbicidal activity) [3] | growth of ivyleaf morningglory (herbicidal activity) [4]

COC(=O)C(C)Oc1ccnc(Oc2cc(-n3c(=O)cc(C(F)(F)F)n(C)c3=O)c(F)cc2Cl)n1 (centres unmarked) [Compound 1-2, methyl 2-([2-{2-chloro-4-fluoro-5-[3-methyl-2,6-dioxo-4-(trifluoromethyl)-1,2,3,6-tetrahydropyrimidin-1-yl]phenoxy}pyrimidin-4-yl]oxy)propionate]
completely controlled: growth of velvetleaf (herbicidal activity) [1] | growth of ivyleaf morningglory (herbicidal activity) [2] | growth of velvetleaf (herbicidal activity) [3] | growth of ivyleaf morningglory (herbicidal activity) [4]

COC(=O)C(C)Oc1cccc(Oc2cc(-n3c(=O)cc(C(F)(F)F)n(C)c3=O)c(F)cc2Cl)n1 (centres unmarked) [Compound 2-42, 2-{2-chloro-4-fluoro-5-[3-methyl-2,6-dioxo-4-(trifluoromethyl)-1,2,3,6-tetrahydropyrimidin-1-yl]phenoxy}-6-{1-(methoxycarbonyl)ethoxy}pyridine]
completely controlled: growth of velvetleaf (herbicidal activity) [1] | growth of ivyleaf morningglory (herbicidal activity) [2] | growth of velvetleaf (herbicidal activity) [3] | growth of ivyleaf morningglory (herbicidal activity) [4]
